Experimental data published in ChEMBL document CHEMBL1136195, “Inhibition of Src kinase activity by 4-anilino-5,10-dihydro-pyrimido[4,5-b]quinolines” (Bioorg Med Chem Lett, 2003).

Columns and labels:
[1] = biological target: T1, Proto-oncogene tyrosine-protein kinase Src (Homo sapiens, UniProt P12931); assay: (§1) Inhibition of Src protein tyrosine kinase
[2] = biological target: T1, Proto-oncogene tyrosine-protein kinase Src; assay: as §1; conditions: concentration not given here

T1 sequence (P12931 2-536 limits assumed): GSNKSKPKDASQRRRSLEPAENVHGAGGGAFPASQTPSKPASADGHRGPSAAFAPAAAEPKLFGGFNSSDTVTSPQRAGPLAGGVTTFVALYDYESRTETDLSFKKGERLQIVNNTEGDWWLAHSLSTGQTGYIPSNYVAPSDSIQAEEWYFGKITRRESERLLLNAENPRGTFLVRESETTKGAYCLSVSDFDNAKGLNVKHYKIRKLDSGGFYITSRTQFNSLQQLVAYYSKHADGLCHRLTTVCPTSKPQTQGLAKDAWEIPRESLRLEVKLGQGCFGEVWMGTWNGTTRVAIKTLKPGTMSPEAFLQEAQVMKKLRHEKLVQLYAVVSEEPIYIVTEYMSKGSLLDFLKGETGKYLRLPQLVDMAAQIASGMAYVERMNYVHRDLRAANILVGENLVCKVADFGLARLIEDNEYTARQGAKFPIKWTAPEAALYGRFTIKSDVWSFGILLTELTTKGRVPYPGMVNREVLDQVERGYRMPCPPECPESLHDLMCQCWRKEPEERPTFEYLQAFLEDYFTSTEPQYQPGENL

Row | Structure (SMILES) | IC50 [1] [nM] | inhibition [2] [%]
1 | COc1cc(Nc2ncnc3c2Cc2cc(OC)c(OC)cc2N3)c(Cl)cc1Cl | 3.3 | –
2 | COc1cc2ncc(C#N)c(Nc3ccc(Cl)cc3Cl)c2cc1OC | 30 | –
3 | COCCOc1cc2nc3ncnc(Nc4cc(OC)c(Cl)cc4Cl)c3cc2cc1OC | – | 35
4 | COc1cc(Nc2ncnc3nc4cc(OC)c(OC)cc4cc23)c(Cl)cc1Cl | > 10000 | –
5 | COCCOc1cc2c(cc1OC)Cc1c(Nc3cc(OC)c(Cl)cc3Cl)ncnc1N2 | 2.3 | –
6 | COc1cc(Nc2c(C#N)cnc3cc(OC)c(OC)cc23)c(Cl)cc1Cl | 4.3 | –
7 | COCCOc1cc2c(cc1OC)Nc1ncnc(Nc3cc(OC)c(Cl)cc3Cl)c1C2 | 9.8 | –
8 | COCCOc1cc2c(cc1OC)Cc1c(Nc3ccc(Cl)cc3Cl)ncnc1N2 | 16 | –
